Source: patent publication US12338253B2, “Nitrogen-containing polycyclic fused ring compound, pharmaceutical composition thereof, preparation method therefor and use thereof” (APPLIED PHARMACEUTICAL SCIENCE, INC., priority 2019, dated 2025)

How the values were obtained:
RET V804M = RET V804M (Homo sapiens (Human), UniProt P07949, V804M); test: HTRF kinase activity test, RET V804M; format: biochemical; settings: for IC50: HTRF KinEASE-TK; for inhibitory activity on RET V804M compared with cabozantinib: comparison in words
Chain of RET V804M (P07949 29-1114 V804M): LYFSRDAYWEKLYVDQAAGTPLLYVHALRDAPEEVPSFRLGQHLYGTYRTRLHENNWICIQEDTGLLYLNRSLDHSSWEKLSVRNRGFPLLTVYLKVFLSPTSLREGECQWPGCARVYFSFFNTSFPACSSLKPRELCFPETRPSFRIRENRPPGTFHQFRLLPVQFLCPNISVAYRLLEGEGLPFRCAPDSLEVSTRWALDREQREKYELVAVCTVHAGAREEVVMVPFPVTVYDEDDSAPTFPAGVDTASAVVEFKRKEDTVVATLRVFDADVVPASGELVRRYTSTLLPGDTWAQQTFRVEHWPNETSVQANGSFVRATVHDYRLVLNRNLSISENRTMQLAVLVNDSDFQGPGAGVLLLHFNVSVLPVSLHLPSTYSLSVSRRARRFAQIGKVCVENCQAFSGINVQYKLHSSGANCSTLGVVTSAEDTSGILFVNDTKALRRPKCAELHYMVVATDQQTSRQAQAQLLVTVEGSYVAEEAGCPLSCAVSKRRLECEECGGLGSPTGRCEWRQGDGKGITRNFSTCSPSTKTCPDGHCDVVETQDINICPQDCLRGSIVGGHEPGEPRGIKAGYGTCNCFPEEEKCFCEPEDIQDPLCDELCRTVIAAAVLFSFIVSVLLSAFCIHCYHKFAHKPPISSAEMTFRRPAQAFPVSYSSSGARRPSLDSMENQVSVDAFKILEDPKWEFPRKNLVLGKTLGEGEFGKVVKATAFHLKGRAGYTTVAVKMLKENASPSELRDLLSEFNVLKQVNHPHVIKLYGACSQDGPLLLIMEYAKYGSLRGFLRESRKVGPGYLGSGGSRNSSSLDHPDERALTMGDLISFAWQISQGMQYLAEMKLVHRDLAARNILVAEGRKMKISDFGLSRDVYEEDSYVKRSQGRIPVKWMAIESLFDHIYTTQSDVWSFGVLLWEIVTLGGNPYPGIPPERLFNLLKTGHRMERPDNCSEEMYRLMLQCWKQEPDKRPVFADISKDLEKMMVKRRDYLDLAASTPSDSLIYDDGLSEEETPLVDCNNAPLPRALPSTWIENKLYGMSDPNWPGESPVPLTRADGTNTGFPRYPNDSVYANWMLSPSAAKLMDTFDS

TT Cell = test: TT cell activity test (CelltiterGlo, 72 h); format: cell-based, human; settings: for IC50: Homo sapiens, TT cell line, 72 h, CTG; for inhibitory activity on TT cells compared with cabozantinib: comparison in words
Experimental: 2.3 Data Processing % Inhibition (inhibition rate)=100*(HC−test compound well reading)/(HC−LC) • High control (HC, reading control without inhibition): 0.5% DMSO • Low control (LC, control with compound inhibition): 1 μM CEP-32496
The IC50 values were calculated using GraphPad Prism 6 software. Y=Bottom+(Top−Bottom)/(1+10^((Log IC50−X)*HillSlope)); • X: log of cpd concentration; • Y: % inhibition; • Top and Bottom: plateaus in same units as Y; • Log IC50: same log units as X; and • HillSlope: slope factor The Cell Results are Shown in Table 5: […]

RET wt = RET wt (Homo sapiens (Human), UniProt P07949); test: HTRF kinase activity test, RET wt; format: biochemical; settings: for IC50: HTRF KinEASE-TK; for inhibitory activity on RET wt compared with cabozantinib: comparison in words
Chain of RET wt (P07949 29-1114): as the sequence (P07949 29-1114 V804M) above, with M776V counted along it

RET G810R = RET G810R (Homo sapiens (Human), UniProt P07949, G810R); test: HTRF kinase activity test, RET G810R; format: biochemical; settings: for IC50: HTRF KinEASE-TK; for inhibitory activity on RET G810R compared with cabozantinib and selpercatinib (LOXO-292): comparison in words
Chain of RET G810R (P07949 29-1114 G810R): as the sequence (P07949 29-1114 V804M) above, with M776V, G782R counted along it

| SMILES | IC50 (RET V804M) | inhibitory activity on RET V804M compared with cabozantinib (RET V804M) | IC50 (TT Cell) | IC50 (RET wt) | inhibitory activity on RET wt compared with cabozantinib (RET wt) | IC50 (RET G810R) | inhibitory activity on RET G810R compared with cabozantinib and selpercatinib (LOXO-292) (RET G810R) | inhibitory activity on TT cells compared with cabozantinib (TT Cell) |
| --- | --- | --- | --- | --- | --- | --- | --- | --- |
| COCCOc1cc(-c2ccc(N3CC4CC(C3)N4Cc3ccc(OC)nc3)nc2)c2c3c(N)n[nH]c3nn2c1 [Compound 1, 6-(2-methoxyethoxy)-4-(6-(6-((6-methoxypyridin-3-yl)methyl)-3,6-diazabicyclo[3.3.1]heptan-3-yl)pyridin-3-yl)-1H-pyrazolo[3′,4′:3,4]pyrazolo[1,5-a]pyridin-3-amine] | 2.9 nM | significantly better than that of cabozantinib | 319 nM | 4.1 nM | significantly better than that of cabozantinib |  |  |  |
| COCCOc1cc(-c2ccc(N3CC4CC(C3)N4Cc3ccc(OC)nc3)nc2)c2c3cn[nH]c3nn2c1 [Compound 7, 6-(2-methoxyethoxy)-4-(6-(6-((6-methoxypyridin-3-yl)methyl)-3,6-diazabicyclo[3.3.1]heptan-3-yl)pyridin-3-yl)-1H-pyrazolo[3′,4′:3,4]pyrazolo[1,5-a]pyridine] | 0.1 nM | significantly better than that of cabozantinib | 2.5 nM | 0.1 nM | significantly better than that of cabozantinib | 2.7 nM | significantly better than that of cabozantinib and selpercatinib (LOXO-292) | significantly better than that of cabozantinib |
| COc1ccc(CN2C3CC2CN(c2ccc(-c4cc(OCCCF)cn5nc6[nH]ncc6c45)cn2)C3)cn1 [Compound 12, 6-(3-fluoropropoxy)-4-(6-(6-((6-methoxypyridin-3-yl)methyl)-3,6-diazabicyclo[3.3.1]heptan-3-yl)pyridin-3-yl)-1H-pyrazolo[3′,4′:3,4]pyrazolo[1,5-a]pyridine] | 0.1 nM | significantly better than that of cabozantinib | 1.5 nM | 0.1 nM | significantly better than that of cabozantinib | 3.9 nM | significantly better than that of cabozantinib and selpercatinib (LOXO-292) | significantly better than that of cabozantinib |
| COc1ccc(CN2C3CC2CN(c2cnc(-c4cc(OCCF)cn5nc6[nH]ncc6c45)cn2)C3)cn1 [Compound 16, 6-(2-fluoroethoxy)-4-(5-(6-((6-methoxypyridin-3-yl)methyl)-3,6-diazabicyclo[3.3.1]heptan-3-yl)pyrazin-2-yl)-1H-pyrazolo[3′,4′:3,4]pyrazolo[1,5-a]pyridine] | 0.1 nM | significantly better than that of cabozantinib | 12.8 nM |  |  | 2.9 nM | significantly better than that of cabozantinib and selpercatinib (LOXO-292) | significantly better than that of cabozantinib |
| COc1ccc(C(=O)N2C3CC2CN(c2ccc(-c4cc(OCCF)cn5nc6[nH]ncc6c45)cn2)C3)cn1 [Compound 23, (3-(5-(6-(2-fluoroethoxy)-1H-pyrazolo[3′,4′:3,4]pyrazolo[1,5-a]pyridin-4-yl)pyridin-2-yl)-3,6-diazabicyclo[3.3.1]heptan-6-yl)(6-methoxypyridin-3-yl)methanone] | 0.1 nM | significantly better than that of cabozantinib | 7.9 nM |  |  |  |  | significantly better than that of cabozantinib |
| COc1cc(-c2cnc(N3CC4CC(C3)N4Cc3ccc(OC)nc3)cn2)c2c3cn[nH]c3nn2c1 [Compound 24, 6-methoxy-4-(5-(6-((6-methoxypyridin-3-yl)methyl)-3,6-diazabicyclo[3.3.1]heptan-3-yl)pyrazin-2-yl)-1H-pyrazolo[3′,4′:3,4]pyrazolo[1,5-a]pyridine] |  |  | 22.4 nM |  |  | 2.3 nM | significantly better than that of cabozantinib and selpercatinib (LOXO-292) | significantly better than that of cabozantinib |
| COc1ccc(CN2C3CC2CN(c2cnc(-c4cc(OCC(F)F)cn5nc6[nH]ncc6c45)cn2)C3)cn1 [Compound 25, 6-(2,2-difluoroethoxy)-4-(5-(6-((6-methoxypyridin-3-yl)methyl)-3,6-diazabicyclo[3.3.1]heptan-3-yl)pyrazin-2-yl)-1H-pyrazolo[3′,4′:3,4]pyrazolo[1,5-a]pyridine] |  |  | 23.4 nM |  |  | 4.3 nM | significantly better than that of cabozantinib and selpercatinib (LOXO-292) | significantly better than that of cabozantinib |
| COc1ccc(CN2C3CC2CN(c2ccc(-c4cc(OCC#N)cn5nc6[nH]ncc6c45)cn2)C3)cn1 [Compound 26, 2-((4-(6-(6-((6-methoxypyridin-3-yl)methyl)-3,6-diazabicyclo[3.3.1]heptan-3-yl)pyridin-3-yl)-1H-pyrazolo[3′,4′:3,4]pyrazolo[1,5-a]pyridin-6-yl)oxy)acetonitrile] |  |  | 22.7 nM |  |  | 2.1 nM | significantly better than that of cabozantinib and selpercatinib (LOXO-292) | significantly better than that of cabozantinib |
| COc1ccc(CN2C3CC2CN(c2ccc(-c4cc(OCCOC(F)F)cn5nc6[nH]ncc6c45)cn2)C3)cn1 [Compound 27, 6-(2-(difluoromethoxy)ethoxy)-4-(6-(6-((6-methoxypyridin-3-yl)methyl)-3,6-diazabicyclo[3.3.1]heptan-3-yl)pyridin-3-yl)-1H-pyrazolo[3′,4′:3,4]pyrazolo[1,5-a]pyridine] | 0.1 nM | significantly better than that of cabozantinib | 27.9 nM | 0.1 nM | significantly better than that of cabozantinib | 4.8 nM | significantly better than that of cabozantinib and selpercatinib (LOXO-292) | significantly better than that of cabozantinib |
| COc1ccc(CN2C3CC2CN(c2ccc(-c4cc(OCC(F)(F)F)cn5nc6[nH]ncc6c45)cn2)C3)cn1 [Compound 30, 4-(6-(6-((6-methoxypyridin-3-yl)methyl)-3,6-diazabicyclo[3.3.1]heptan-3-yl)pyridin-3-yl)-6-(2,2,2-trifluoroethoxy)-1H-pyrazolo[3′,4′:3,4]pyrazolo[1,5-a]pyridine] |  |  | 48.6 nM |  |  | 5.9 nM | significantly better than that of cabozantinib and selpercatinib (LOXO-292) | significantly better than that of cabozantinib |
| COc1cc(-c2ccc(N3CC4CC(C3)N4Cc3ccc(OC)nc3)nc2)c2c3cn[nH]c3nn2c1 [Compound 36, 6-methoxy-4-(6-(6-((6-methoxypyridin-3-yl)methyl)-3,6-diazabicyclo[3.3.1]heptan-3-yl)pyridin-3-yl)-1H-pyrazolo[3′,4′:3,4]pyrazolo[1,5-a]pyridine] | 0.1 nM | significantly better than that of cabozantinib | 10.7 nM | 0.2 nM | significantly better than that of cabozantinib | 1.7 nM | significantly better than that of cabozantinib and selpercatinib (LOXO-292) | significantly better than that of cabozantinib |
| CCCOc1cc(-c2ccc(N3CC4CC(C3)N4Cc3ccc(OC)nc3)nc2)c2c3cn[nH]c3nn2c1 [Compound 38, 4-(6-(6-((6-methoxypyridin-3-yl)methyl)-3,6-diazabicyclo[3.3.1]heptan-3-yl)pyridin-3-yl)-6-propoxy-1H-pyrazolo[3′,4′:3,4]pyrazolo[1,5-a]pyridine] | 0.1 nM | significantly better than that of cabozantinib | 10.6 nM | 0.2 nM | significantly better than that of cabozantinib | 2.9 nM | significantly better than that of cabozantinib and selpercatinib (LOXO-292) | significantly better than that of cabozantinib |
| COc1ccc(CN2C3CC2CN(c2ccc(-c4cc(OCC(C)C)cn5nc6[nH]ncc6c45)cn2)C3)cn1 [Compound 39, 6-isobutoxy-4-(6-(6-((6-methoxypyridin-3-yl)methyl)-3,6-diazabicyclo[3.3.1]heptan-3-yl)pyridin-3-yl)-1H-pyrazolo[3′,4′:3,4]pyrazolo[1,5-a]pyridine] | 0.3 nM | significantly better than that of cabozantinib | 12.3 nM | 0.4 nM | significantly better than that of cabozantinib | 30.5 nM | significantly better than that of cabozantinib and selpercatinib (LOXO-292) | significantly better than that of cabozantinib |
